We go through two substances from patent publication US20100249064A1, “METHODS AND COMPOSITIONS FOR TREATING DISEASES AND CONDITIONS INVOLVING HIGHER MOLECULAR WEIGHT HYALURONAN” (University of Chicago, priority 2007, published 2010).

For experiment [1], the system named is Human pulmonary artery EC. As to the kind of experiment: Transendothelial electrical resistance (TER) of HA-treated EC monolayers, Example 1. The note with it: for change in transmonolayer electrical resistance (TER): 1 nM, 10 nM or 100 nM HA, serum starved EC; for effect of pretreatment of HA by boiling or proteinase K digestion on HA-induced EC TER: HA boiled or proteinase K digested; for effect of hyaluronidase SD treatment of HA on HA-induced EC TER: HA treated with hyaluronidase SD. In kind it is cell-based. Here is the method:
Measurement of TransEC Electrical Resistance (TER)—EC were grown to confluence in polycarbonate wells containing evaporated gold microelectrodes. TER measurements were performed using an electrical cell-substrate impedance sensing system (Applied Biophysics, Troy, N.Y.) as described (Garcia et al., 2001). TER values from each microelectrode were pooled at discrete time points and plotted versus time as the mean±S.E.

Experiment [2] has as its system Human pulmonary artery EC. As to the kind of experiment: Cortical actin (phalloidin) staining and quantitation. In kind it is cell-based. The conditions noted are these: for cortical actin ring formation (F-actin localization): early, timepoint 5 min. The protocol: Immunofluorescence Microscopy and Cortical Actin Quantitation—Polymerized actin rearrangement was assessed first with Texas Red-conjugated phalloidin (Invitrogen (Molecular Probes), Eugene, Oreg.) and then analyzed using a Nikon Eclipse TE 300 microscope as described (Garcia et al., 2001). ImageQuant™ software (Amersham Biosciences Corp. (Piscataway, N.J.)) was used to analyze the computer recorded .tiff images. A standardized average grey value (SAGV) was generated for total phalloidin staining versus cortical phalloidin staining for each cell (Singleton et al., 2005). The following equation was used to calculate percent cortical actin staining: ((cortical actin SAGV×area) divided by (total actin SAGV×area))×100. At least ten cells per sample were analyzed. Experiments were performed in triplicate.
Immunofluorescence Microscopy. EC were serum-starved for one hour prior to the addition of 100 nM high MW HA. EC were then fixed in 4% paraformaldehyde, permeablized with ethanol and incubated with specific protein or interest primary antibody for 30 min followed by either FITC or Texas Red-conjugated secondary (Invitrogen (Molecular Probes), Eugene, Oreg.) and analyzed using a Nikon Eclipse TE 300 microscope as described (Garcia et. al., 2001).

In experiment [3] the test system is CD44s, CD44v10, S1P1 and S1P3 receptors in lipid rafts. Put plainly: CD44 isoform / S1P receptor recruitment and association in lipid raft (CEM) fractions. It counts as cell-based, human. The note with it: for CD44 isoform association with S1P receptors in lipid rafts: 100 nM HA, immunoprecipitation from lipid raft fractions. Here is the method:
Lipid Raft Isolation—Caveolin-enriched microdomain known as lipid rafts were isolated from human lung EC as described (Singleton and Bourguignon, 2004; Singleton et al., 2005). Materials insoluble in Triton X-100-insoluble were mixed with 0.6 ml of cold 60% Optiprep™ and then overlaid with 0.6 ml of 40%-20% Optiprep™. The resulting gradients were then centrifuged (35,000 rpm) in SW60 rotor for 12 h at 4° C. and different fractions were collected and analyzed. In some cases, different fractions were analyzed for total cholesterol content using a cholesterol assay kit (Amplex Red™, Invitrogen (Molecular Probes), Eugene, Oreg.).
Immunoprecipitation and Immunoblotting—Cellular materials associated within the 20% Optiprep™ fractions (lipid raft fraction) were incubated with IP buffer A (50 mM HEPES (pH 7.5), 150 mM NaCl, 20 mM MgCl2, 1% Nonidet P-40 (NP-40), 0.4 mM Na3VO4, 40 mM NaF, 50 μM okadaic acid, 0.2 mM phenylmethylsulfonyl fluoride, 1:250 dilution of Calbiochem protease inhibitor mixture 3) or IP buffer B (50 mM HEPES (pH 7.5), 150 mM NaCl, 20 mM MgCl2, 1% Triton X-100, 0.1% SDS, 0.4 mM Na3VO4, 40 mM NaF, 50 μM okadaic acid, 0.2 mM phenylmethylsulfonyl fluoride, 1:250 dilution of Calbiochem protease inhibitor mixture 3) as indicated. The samples were then immunoprecipitated with anti-S1P1 receptor or anti-S1P3 receptor IgG followed by SDS-PAGE in 4-15% polyacrylamide gels, and transfer onto Immobilon™ membranes. Development occurred using specific primary and secondary antibodies. Enhanced chemiluminescence (Amersham Biosciences) for visualization of immunoreactive bands then took place.
Determination of Complex Formation between S1P1 Receptor/CD44s and S1P3 Receptor/CD44v10—EC monolayers were serum-starved for one hour, then treated with High or Low MW HA (100 nM) (5-30 min.) and solubilized in IP buffer A (see above). Following immunoprecipitation with either rabbit anti-S1P1 receptor or mouse anti-S1P3 receptor antibody, the samples were subjected to SDS-PAGE in 4-15% polyacrylamide gels and transfer onto Immobilon™ membranes (Millipore Corp., Bedford, Mass.). Nonspecific sites were then blocked with 5% bovine serum albumin, and the blots were then incubated with either rat anti-CD44 (IM-7, common domain) antibody, rabbit anti-S1P1 antibody or mouse anti-S1P3 antibody followed by incubation with horseradish peroxidase (HRP)-labeled goat anti-rabbit, goat anti-mouse or goat anti-rat IgG. Enhanced chemiluminescence (Amersham Biosciences) for visualization of immunoreactive bands then took place.

The subject of experiment [4] is S1P1 and S1P3 Receptor. As to the kind of experiment: Tyrosine/serine/threonine phosphorylation of S1P receptors. It counts as cell-based, human. The conditions noted are these: 100 nM HA. Here is the method:
Determination of Tyrosine/Serine/Threonine Phosphorylation of the S1P1 and S1P3 Receptor—Immunoprecipitation of solubilized proteins in IP buffer B (see above) took place with either rabbit anti-S1P1 receptor or mouse anti-S1P3 receptor antibody, which was followed by SDS-PAGE in 4-15% polyacrylamide gels and transfer onto Immobilon™ membranes (Millipore Corp., Bedford, Mass.). Following blockage of nonspecific sites with 5% bovine serum albumin, the blots were incubated with either rabbit anti-S1P1 antibody, mouse anti-S1P3 antibody, mouse anti-phospho-tyrosine, rabbit anti-phospho-serine antibody or rabbit anti-phospho-threonine antibody, and then incubated with horseradish peroxidase (HRP)-labeled goat anti-rabbit or goat anti-mouse IgG. Enhanced chemiluminescence (Amersham Biosciences) for visualization of immunoreactive bands then took place.

For experiment [5], the system named is RhoA and Rac. Put plainly: Rho family activation assay. The note with it: 100 nM HA; for Rac1 activation: LMW-HA 5 min, HMW-HA 5, 15, 30 min. In kind it is cell-based, human. The protocol:
Rho Family Activation Assay—The RhoA and Rac activation assays using human lung EC were performed as described (Ren et al., 1999).

Experiment [6] concerns Human pulmonary EC. Put plainly: TER, Example 5. In kind it is cell-based. The note with it: for change in TER: human pulmonary EC, Example 5. Here is the method:
Measurement of TransEC Electrical Resistance (TER). EC were grown to confluence in polycarbonate wells containing evaporated gold microelectrodes, and TER measurements performed using an electrical cell-substrate impedance sensing system (Applied Biophysics, Troy, N.Y.) as previously described (Garcia et al., 2001). TER values from each microelectrode were pooled at discrete time points and plotted versus time as the mean±S.E.

Take hyaluronan [HMW-HA]: in experiment [1], the “change in transmonolayer electrical resistance (TER)” value is “gradual and sustained rise in transmonolayer electrical resistance (TER) in a dose-dependent fashion”; the “effect of pretreatment of HA by boiling or proteinase K digestion on HA-induced EC TER” value is “little effect”. For the same substance, in experiment [1] (listed as High MW HA), the “effect of hyaluronidase SD treatment of HA on HA-induced EC TER” value is listed as “blocked the effects of High MW HA”. Also, the “cortical actin ring formation (F-actin localization)” value in experiment [2] was “induced prominent cortical actin ring formation early on”. In addition, the “recruitment of CD44s to the lipid raft fraction” value in experiment [3] (100 nM HA, 5, 15 or 30 min) is given as “rapidly (5 min.) recruit CD44s to the lipid raft fraction”. Besides, in experiment [3], the “CD44 isoform association with S1P receptors in lipid rafts” value is “induced CD44s association in lipid rafts with S1P1”. Further, the S1P receptor phosphorylation result in experiment [4] is on record as “promoted AKT1-mediated threonine phosphorylation of S1P1 receptor”. Also, the Rac1 activation result in experiment [5] was “induced Rac1 activation”. Further, the “time at which HMW-HA-induced increase in TER reached plateau” value in experiment [6] was about 3 h. For the same substance, the “protection from LPS-induced EC barrier disruption (TER)” value in experiment [6] (HMW-HA (100 ng/ml), at 6 hours) was “protects from LPS-induced EC barrier disruption”. Also, the “change in TER” value in experiment [6] (listed as High MW HA) is given as “dose-dependent increase in TER”.
As for hyaluronan [LMW-HA, reference compound], in experiment [1], the “change in transmonolayer electrical resistance (TER)” value was “biphasic changes in TER with an initial rapid increase in barrier enhancement followed by significant and prolonged barrier disruption”; the “effect of pretreatment of HA by boiling or proteinase K digestion on HA-induced EC TER” value was “little effect”. Besides, the “effect of hyaluronidase SD treatment of HA on HA-induced EC TER” value in experiment [1] (listed as Low MW HA) was “blocked the effects of Low MW HA”. Further, the “cortical actin staining / F-actin stress fiber formation” value in experiment [2] (challenge for 30 min) is reported as “loss of cortical actin staining with increased F-actin stress fiber formation”. Further, the “cortical actin ring formation (F-actin localization)” value in experiment [2] was “induced prominent cortical actin ring formation early on”. Further, in experiment [3] (100 nM HA, 5, 15 or 30 min), the “recruitment of CD44s to the lipid raft fraction” value is “rapidly (5 min.) recruit CD44s to the lipid raft fraction” and the “recruitment of CD44v10 to the lipid raft fraction” value was “robust but delayed recruitment of CD44v10 (after 15 min.)”. The “CD44 isoform association with S1P receptors in lipid rafts” value in experiment [3] is on record as “induced an initial CD44s association with S1P1 which was followed by CD44v10 association with S1P3 receptor in lipid raft fractions”. In experiment [4], the S1P receptor phosphorylation result is “induced sequential AKT1-mediated S1P1 and Src/ROCK1/2-mediated S1P3 receptor phosphorylation/activation”. The RhoA activation entry in experiment [5] (15-30 min) was “promoted RhoA activation”. The Rac1 activation result in experiment [5] is “induced Rac1 activation”. Moreover, in experiment [6] (listed as low MW HA), the “change in TER” value was “biphasic response ultimately leading to EC barrier disruption”.
